Measured values published in paper PMC7155171, “Probing the Open Global Health Chemical Diversity Library for Multistage-Active Starting Points for Next-Generation Antimalarials” (ACS Infectious Diseases, 2020).

Key:
[1] = molecular target: recombinant firefly luciferase (Photinus pyralis, UniProt P08659); assay: biochemical; settings: dose response; for Emax: maximum inhibition, read-out: rLuc inhibition dose response: Maximum inhibition (%); for IC50: read-out: rLuc inhibition dose response: IC50
[2] = test system: P. berghei liver stage (PbLuc); assay: P. berghei luciferase liver stage (PbLuc) assay in HepG2-A16-CD81 hepatocytes; type: cell-based, Plasmodium berghei; settings: Plasmodium berghei; for IC50: HepG2-A16-CD81, 12pt dose response, read-out: PbLuc 12pt dose response: IC50; for Emax: HepG2-A16-CD81, 48 h, 12pt dose response, maximum inhibition
[3] = HepG2 cytotoxicity screening (CellTiter-Glo); settings: human, uninfected HepG2-A16-CD81 (EGFP) hepatocytes
[4] = test system: HepG2-A16-CD81 hepatocytes; assay: HepG2 cytotoxicity screening (CellTiter-Glo); settings: for HepG2 cytotoxicity 12pt dose response: Maximum inhibition (%): 12pt dose response

Chain of recombinant firefly luciferase (P08659 whole entry): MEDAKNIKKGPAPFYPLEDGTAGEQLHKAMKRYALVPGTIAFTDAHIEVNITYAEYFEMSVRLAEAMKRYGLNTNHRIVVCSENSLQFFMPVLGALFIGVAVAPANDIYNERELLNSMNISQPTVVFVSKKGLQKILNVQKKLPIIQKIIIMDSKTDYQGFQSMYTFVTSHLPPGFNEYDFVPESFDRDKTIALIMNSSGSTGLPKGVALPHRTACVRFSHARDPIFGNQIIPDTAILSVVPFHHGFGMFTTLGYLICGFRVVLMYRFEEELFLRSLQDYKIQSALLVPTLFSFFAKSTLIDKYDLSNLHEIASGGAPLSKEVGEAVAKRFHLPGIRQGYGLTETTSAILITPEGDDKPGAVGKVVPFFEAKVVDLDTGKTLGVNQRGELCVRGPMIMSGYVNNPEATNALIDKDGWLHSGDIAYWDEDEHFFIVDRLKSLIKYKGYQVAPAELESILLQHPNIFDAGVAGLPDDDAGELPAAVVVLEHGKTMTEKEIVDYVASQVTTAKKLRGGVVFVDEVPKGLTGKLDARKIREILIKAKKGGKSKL

Compound	Emax [1]	IC50 [1]	IC50 [2]	Emax [2]	IC50 [3]	HepG2 Cytotoxicity primary screen (2uM): % Inhibition [4]	HepG2 cytotoxicity 12pt dose response: Maximum inhibition (%) [4]	inhibition at 2 µM [3]	inhibition at 2 µM ([2]; HepG2-A16-CD81, primary screen, 2 uM)	inhibition at 10 µM [3]
Cc1cn2c(n1)C(CNCC1=Cc3ccccc3OC1)CCC2 (centres unmarked) [UCSD-0812993]	66.8%	> 25 µM	> 2.78 µM	93.1%	> 25 µM	-0.92%	24.6%			
Cc1nc(C(=O)NC2CCN(CCOc3ccc(Br)cc3)CC2)cs1 [UCSD-0818164]	32.1%	> 25 µM	13.6 µM	98.3%	> 25 µM	17.63%	35.2%			
Cc1ncc(C(=O)NC2CCN(CCOc3ccc(Br)cc3)CC2)s1 [UCSD-0818166]	32.8%	> 25 µM	15.8 µM	96.5%	> 25 µM		7.96%	1.78%		
CN1CCOC(C(=O)Nc2ccc3c(c2)nc(C(C)(C)C)n3C)C1 (centres unmarked) [UCSD-0818200]	88.4%	13.4 µM	0.00222 µM		> 25 µM		0.658%			
N#Cc1c(Cl)nsc1NCC1(c2ccccc2)CCC1 [UCSD-0818294]	16.9%	> 25 µM	13.2 µM	98.3%	> 25 µM	11.95%	34.3%			
O=C(CN1CCCC(c2ccn[nH]2)C1)Nc1nc2c(s1)CCCC2 (centres unmarked) [UCSD-0818422]	6.65%	> 25 µM	4.53 µM	95.9%	> 25 µM	7.13%	8.88%			
O=C(c1ccc(Br)o1)N1CCN(Cc2ccc(OC(F)(F)F)cc2)CC1 [UCSD-0819339]	10.9%	> 25 µM	9.24 µM	97.7%	> 25 µM		57.1%	0%		
CCc1nc(CN2CCN(c3ncnc4cc(F)ccc34)CC2)no1 [UCSD-0819439]	3.14%	> 25 µM	2.76 µM	95.7%	6.37 µM		64.7%	13.2%		
COc1ccc(-c2nc(CN3CC(n4cc(C)cn4)C3)no2)cc1 [UCSD-0819446]	6.87%	> 25 µM	11.2 µM	82.5%	> 25 µM	-12.79%	1.19%			
CC(NC(=O)c1cc(-c2cccc(Cl)c2)no1)C(=O)N1CCCC1 (centres unmarked) [UCSD-0819519]	37.2%	> 25 µM	11 µM	91.8%	> 25 µM	0.00%	0.675%			
CC(=O)c1c(F)cccc1N1CCC(Cc2cccnc2)CC1 [UCSD-0819611]	7.02%	> 25 µM	4.23 µM	116%	15.4 µM		73%	15.8%		
COc1cc(CN(C)C(=O)Cc2c(C)nn(C)c2C)ccc1OC(F)F [UCSD-0819780]	6.77%	> 25 µM	2.11 µM	80.1%	> 25 µM		55.1%	7.57%		
CCc1ccc(-c2ncc3c(n2)N(C)CCN(CCN(C)C)C3=O)cc1 [UCSD-0824219]	7.09%	> 25 µM	12.1 µM	81.1%	> 25 µM	4.38%	6.88%			
Cc1ccc(Sc2ccc(CN3CCC4(CCCNC4=O)C3)o2)cc1 (centres unmarked) [UCSD-0825128]	21.8%	> 25 µM	14.7 µM	95%	> 25 µM	-4.20%	8.34%			
CC1(c2ccccc2)CCCN(Cc2cncn2C2CCCC2)C1 (centres unmarked) [UCSD-0827293]	7.12%	> 25 µM	13.5 µM	95.5%	18.7 µM	-6.73%	58%			
Clc1ccccc1-c1cc(CNc2ncnc3c2CCNCC3)no1 [UCSD-0827811]	12.2%	> 25 µM	13.6 µM	93.4%	> 25 µM	-1.07%	49.9%			

Compound	Emax [1]	IC50 [1]	IC50 [2]	Emax [2]	IC50 [3]	HepG2 Cytotoxicity primary screen (2uM): % Inhibition [4]	HepG2 cytotoxicity 12pt dose response: Maximum inhibition (%) [4]	inhibition at 2 µM [3]	inhibition at 2 µM ([2]; HepG2-A16-CD81, primary screen, 2 uM)	inhibition at 10 µM [3]
CC(C)CN1CCCC1c1ccc(C(=O)Nc2cccnc2)s1 (centres unmarked) [UCSD-0828121]	38.6%	> 25 µM	9.26 µM		> 25 µM		5.88%	3.83%		
Fc1ccc(N2CCCN(c3ccc(Cn4ccnc4)cn3)CC2)cc1 [UCSD-0828381]	34.7%	> 25 µM	1.16 µM	98.9%	23.9 µM	3.83%	52.6%			
COc1ccc2cc(C3CN(C(=O)CCNC(C)=O)CCO3)ccc2c1 (centres unmarked) [UCSD-0829391]	67.5%	9.9 µM	0.333 µM	85.2%	> 25 µM		2.45%	-3.5%	-1.1%	
c1ccc(OCCNc2ncnc3sc4c(c23)CCNC4)cc1 [UCSD-0829760]	7.54%	> 25 µM	9.15 µM	73%	> 25 µM		42.9%	-2.42%		
CC(=O)N1CCN(Cc2cccc3c2sc2ccccc23)CC(O)C1 (centres unmarked) [UCSD-0830872]	15.6%	> 25 µM	5.87 µM	91%	> 25 µM		10.8%	6.03%		
CCc1cnc(N)nc1NC(C)c1ccc(C)c(C)c1 (centres unmarked) [UCSD-0831195]	17.1%	> 50 µM	0.433 µM	89.9%	> 25 µM		56%	3.76%		
CNC(=O)CCC(=O)N1CCOC(c2ccc3cc(OC)ccc3c2)C1 (centres unmarked) [UCSD-0831800]	66.4%	23.5 µM	0.000954 µM	88.9%	> 25 µM		1%	-0.85%		3.9%
COc1ccc(-c2cc(CNc3ncnc4c3CCNCC4)no2)cc1 [UCSD-0833048]	0.184%	> 25 µM	10.2 µM	91.8%	> 25 µM	4.02%	49.3%			
CC(C)(CO)Nc1ccc(-c2nc(-c3ccccc3F)no2)cn1 [UCSD-0833103]	93.7%	0.045 µM	< 0.000141 µM	98.5%	> 25 µM		34.7%	2.86%		
CC(Nc1ncnc2c1CCNC2)c1ccc2c(c1)CCCC2 (centres unmarked) [UCSD-0833335]	12.6%	> 25 µM	9.75 µM	79.1%	18.4 µM	0.57%	57.6%			
Cc1cc(NC(=O)c2ccc(CN3CC[C@H](O)C3)cc2)ccc1F [UCSD-0834308]	100%	< 0.0244 µM	< 0.000282 µM	104%	> 50 µM		10.3%	7.88%		
CCOC(=O)N1CCN(c2nc(CCN)nc3sc(C)c(C)c23)CC1 [UCSD-0834429]	5.96%	> 25 µM	8.74 µM	87.7%	> 25 µM		28%	-5.69%		-49.3%
CCCc1cncnc1N1CCC(NCc2cc3ccccc3[nH]2)CC1 [UCSD-0834906]	31.4%	> 25 µM	1.84 µM	97.5%	> 25 µM		32.8%	7.01%		
COc1cccc(-c2noc3c2CN(c2ncnc4c2CCC4)CC3)c1 [UCSD-0837523]	15.5%	> 25 µM	5.79 µM	84.4%	8.51 µM		52%	-0.62%		
Cc1csc2ncnc(N3CCC(Cn4cc(C(C)(C)N)nn4)CC3)c12 [UCSD-0838044]	21.9%	> 25 µM	11.4 µM	71.7%	> 25 µM	4.60%	46.5%			
COc1ccc2cc(C3CN(C(=O)N(C)C)CCO3)ccc2c1 (centres unmarked) [UCSD-0838135]	91.8%	3.45 µM	< 0.000141 µM	82.4%	> 25 µM		6.4%	-0.4%		
